{
  "source": "patent US9271503B2",
  "about": "“Control of insect pests” (priority 2011, dated 2016)",
  "system": "B. tabaci b-biotype adults and nymphs",
  "experiment": "Field trial on silverleaf whitefly against conventional insecticide (Example 21)",
  "assay_type": "in vivo, Bemisia tabaci",
  "details": "formulations 2.0 L/ha, Diafenthiuron 0.80 L/ha",
  "protocol": "The trial was conducted in an irrigated conventional cotton crops in a cotton farm. […] Each replicated plot measured 24 m wide 100 m long.\nFoliar applications of each treatment were made over two weeks. Pre-treatment counts were made visually of B. tabaci adults and nymphs, on the under-surface of leaves of cotton plants in each treatment. […] Data of both adults and nymphs were expressed as numbers per leaf for each treatment.\nTreatment and sample dates were the independent variables.",
  "data": [
    {"smiles": "CC(C)c1cc(Oc2ccccc2)cc(C(C)C)c1NC(=S)NC(C)(C)C", "note": "[Diafenthiuron]", "values": [
      {"measurement": "Bemisia tabaci adults per leaf, 3 DAT", "value": "15.33 ± 1.45", "unit": "a per leaf"},
      {"measurement": "Bemisia tabaci adults per leaf, 7 DAT", "value": "20.33 ± 2.40", "unit": "ab per leaf"},
      {"measurement": "Bemisia tabaci adults per leaf, 14 DAT", "value": "12.00 ± 0.88", "unit": "a per leaf"},
      {"measurement": "Bemisia tabaci nymphs per leaf, 3 DAT", "value": "28.67 ± 7.22", "unit": "b per leaf"},
      {"measurement": "Bemisia tabaci nymphs per leaf, 7 DAT", "value": "15.33 ± 2.40", "unit": "a per leaf"},
      {"measurement": "Bemisia tabaci nymphs per leaf, 14 DAT", "value": "17.00 ± 1.73", "unit": "b per leaf"},
      {"measurement": "Bemisia tabaci adults, 3 DAT (% mortality)", "setting": "relative to the control", "value": "(54.7%)"},
      {"measurement": "Bemisia tabaci adults, 7 DAT (% mortality)", "setting": "relative to the control", "value": "(32.2%)"},
      {"measurement": "Bemisia tabaci adults, 14 DAT (% mortality)", "setting": "relative to the control", "value": "(34.5%)"},
      {"measurement": "Bemisia tabaci nymphs, 7 DAT (% mortality)", "setting": "relative to the control", "value": "(22.1%)"},
      {"measurement": "Bemisia tabaci nymphs, 14 DAT (% mortality)", "setting": "relative to the control", "value": "(60.6%)"},
      {"measurement": "Bemisia tabaci adults, 3 DAT (% mortality)", "setting": "relative to the control, listed as conventional insecticide", "value": 38.7, "unit": "%"}
    ]}
  ]
}
